Experimental data reported in patent US20100056508A1, “AMINE DERIVATIVES AND THEIR USE IN BETA-2-ADRENORECEPTOR MEDIATED DISEASES” (ASTRAZENECA AB, priority 2006, published 2010).

Columns and labels:
[1] = target: T1, recombinant human Dopamine Subtype D2s receptors (Homo sapiens, UniProt P14416); assay: Dopamine D2 selectivity assay, [3H]-spiperone binding to membranes; settings: inhibition of [3H]-spiperone binding, read-out: D2 bind pIC50 (converted)
T1 construct: purchased Perkin Elmer
Description: (§1) Membranes containing recombinant human Dopamine Subtype D2s receptors were obtained from Perkin Elmer. These were diluted in Assay Buffer (50 mM HEPES, 1 mM EDTA, 120 mM NaCl, 0.1% gelatin, pH 7.4) to provide a final concentration of membranes that gave a clear window between maximum and minimum specific binding.
(§2) Assays were performed in U-bottomed 96-well polypropylene plates. 30 μL [^3H]-spiperone (0.16 nM final concentration) and 30 μL of test compound (10× final concentration) were added to each test well. For each assay plate 8 replicates were obtained for [^3H]-spiperone binding in the presence of 30 μL vehicle (10% (v/v) DMSO in Assay Buffer; defining maximum binding) or 30 μL Haloperidol (10 μM final concentration; defining non-specific binding (NSB)). Membranes were then added to achieve a final volume of 300 μL. The plates were incubated for 2 hours at room temperature and then filtered onto PEI coated GF/B filter plates, pre-soaked for 1 hour in Assay Buffer, using a 96-well plate Tomtec cell harvester. Five washes with 250 μL wash buffer (50 mM HEPES, 1 mM EDTA, 120 mM NaCl, pH 7.4) were performed at 4° C. to remove unbound radioactivity. The plates were dried then sealed from underneath using Packard plate sealers and MicroScint-0 (50 μL) was added to each well. The plates were sealed (TopSeal A) and filter-bound radioactivity was measured with a scintillation counter (TopCount, Packard BioScience) using a 3-minute counting protocol.
(§3) Total specific binding (B0) was determined by subtracting the mean NSB from the mean maximum binding. NSB values were also subtracted from values from all other wells. […] Data was fitted to a four parameter logistic equation to determine the compound potency, which was expressed as pIC50 (negative log molar concentration inducing 50% inhibition of [^3H]-spiperone binding).

[2] = target: T2, recombinant human adrenergic beta 1 receptors (Homo sapiens, UniProt P08588); assay: Adrenergic β1 selectivity assay, [125I]-Iodocyanopindolol binding to membranes; settings: inhibition of [125I]-Iodocyanopindolol binding, read-out: β1 bind pIC50 (converted)
T2 construct: purchased Euroscreen
Description: as §1, with “adrenergic beta 1” for “Dopamine Subtype D2s”, “Euroscreen.” for “Perkin Elmer.”
as §2, with “10” for “30”, “[^125I]-Iodocyanopindolol (0.036” for “[^3H]-spiperone (0.16”, “[^125I]-Iodocyanopindolol” for “[^3H]-spiperone”, “Propranolol” for “Haloperidol”, “100” for “300”, “MicroScint-O” for “MicroScint-0”
as §3, with “[^125I]-Iodocyanopindolol” for “[^3H]-spiperone”

T2 sequence (P08588 whole entry): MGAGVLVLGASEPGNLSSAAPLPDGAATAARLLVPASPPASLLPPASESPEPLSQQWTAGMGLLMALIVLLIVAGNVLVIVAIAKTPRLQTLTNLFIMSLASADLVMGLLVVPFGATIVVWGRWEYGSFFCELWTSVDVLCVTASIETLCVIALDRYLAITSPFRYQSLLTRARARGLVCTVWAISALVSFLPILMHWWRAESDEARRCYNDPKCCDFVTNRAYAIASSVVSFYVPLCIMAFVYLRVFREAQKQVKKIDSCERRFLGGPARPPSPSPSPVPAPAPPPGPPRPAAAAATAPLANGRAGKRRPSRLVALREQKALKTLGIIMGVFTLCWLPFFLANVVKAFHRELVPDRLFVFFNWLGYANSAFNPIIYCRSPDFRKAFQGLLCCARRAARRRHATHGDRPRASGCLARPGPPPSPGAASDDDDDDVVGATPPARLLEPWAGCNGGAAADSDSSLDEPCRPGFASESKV
T1 sequence (P14416 1-414 isoform P14416-2): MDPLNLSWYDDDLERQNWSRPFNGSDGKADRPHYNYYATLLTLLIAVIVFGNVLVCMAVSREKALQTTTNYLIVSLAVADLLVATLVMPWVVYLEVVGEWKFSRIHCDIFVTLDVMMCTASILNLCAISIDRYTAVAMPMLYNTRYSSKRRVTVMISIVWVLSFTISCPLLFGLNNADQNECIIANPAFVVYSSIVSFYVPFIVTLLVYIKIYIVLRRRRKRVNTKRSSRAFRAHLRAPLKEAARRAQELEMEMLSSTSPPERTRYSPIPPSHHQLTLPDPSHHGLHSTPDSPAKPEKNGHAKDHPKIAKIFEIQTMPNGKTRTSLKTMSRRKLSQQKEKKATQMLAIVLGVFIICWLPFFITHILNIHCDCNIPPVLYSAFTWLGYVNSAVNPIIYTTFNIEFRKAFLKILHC

Row | IC50 [1] [nM] | IC50 [2] [nM] | Compound
1 | > 6310 | > 6310 | O=C(CCOCCc1ccccc1)N(CCNCCc1ccc(O)c2[nH]c(=O)ccc12)C1CCCCC1 [Example 2, N-Cyclohexyl-N-(2-(2-(8-hydroxy-2-oxo-1,2-dihydroquinolin-5-yl)ethylamino)ethyl)-3-phenethoxypropanamide]
2 | 200 | 1260 | O=C(CCNCCc1cccc(Cl)c1)N(CCNCCc1ccc(O)c2[nH]c(=O)ccc12)C1CCCCCC1 [Example 3, 3-(3-Chlorophenethylamino)-N-cycloheptyl-N-(2-(2-(8-hydroxy-2-oxo-1,2-dihydroquinolin-5-yl)ethylamino)ethyl)propanamide bis(trifluoroacetate)]
3 | 79.4 | 3160 | O=C(CCNCCc1ccc(Cl)cc1)N(CCNCCc1ccc(O)c2[nH]c(=O)ccc12)C1CCCCCC1 [Example 4, 3-(4-Chlorophenethylamino)-N-cycloheptyl-N-(2-(2-(8-hydroxy-2-oxo-1,2-dihydroquinolin-5-yl)ethylamino)ethyl)propanamide bis(trifluoroacetate)]
4 | 501 | > 10000 | CCOc1cccc(CCNCCC(=O)N(CCNCCc2ccc(O)c3[nH]c(=O)ccc23)C2CCCCCC2)c1 [Example 11, N-Cycloheptyl-3-(3-ethoxyphenethylamino)-N-(2-(2-(8-hydroxy-2-oxo-1,2-dihydroquinolin-5-yl)ethylamino)ethyl)propanamide bis(trifluoroacetate)]
5 | 50.1 | > 10000 | O=C(CCNCCc1cccc(Cl)c1)N(CCNCCc1ccc(O)c2[nH]c(=O)ccc12)C1CCCCC1 [Example 13, 3-(3-Chlorophenethylamino)-N-cyclohexyl-N-(2-(2-(8-hydroxy-2-oxo-1,2-dihydroquinolin-5-yl)ethylamino)ethyl)propanamide bis(trifluoroacetate)]
6 | 251 | > 10000 | O=C(CCNCCc1ccc(Cl)cc1)N(CCNCCc1ccc(O)c2[nH]c(=O)ccc12)C1CCCCC1 [Example 14, 3-(4-Chlorophenethylamino)-N-cyclohexyl-N-(2-(2-(8-hydroxy-2-oxo-1,2-dihydroquinolin-5-yl)ethylamino)ethyl)propanamide bis(trifluoroacetate)]
7 | 1260 | > 10000 | O=C(CCNCCc1cc(F)cc(F)c1)N(CCNCCc1ccc(O)c2[nH]c(=O)ccc12)C1CCCCC1 [Example 15, N-Cyclohexyl-3-(3,5-difluorophenethylamino)-N-(2-(2-(8-hydroxy-2-oxo-1,2-dihydroquinolin-5-yl)ethylamino)ethyl)propanamide bis(trifluoroacetate)]
8 | 1260 | 12600 | O=C(CCNCCc1cc(F)ccc1F)N(CCNCCc1ccc(O)c2[nH]c(=O)ccc12)C1CCCCC1 [Example 17, N-Cyclohexyl-3-(2,5-difluorophenethylamino)-N-(2-(2-(8-hydroxy-2-oxo-1,2-dihydroquinolin-5-yl)ethylamino)ethyl)propanamide bis(trifluoroacetate)]
9 | 3160 | > 10000 | O=C(CCNCCc1cccc(F)c1F)N(CCNCCc1ccc(O)c2[nH]c(=O)ccc12)C1CCCCC1 [Example 18, N-Cyclohexyl-3-(3-difluorophenethylamino)-N-(2-(2-(8-hydroxy-2-oxo-1,2-dihydroquinolin-5-yl)ethylamino)ethyl)propanamide bis(trifluoroacetate)]
10 | 1260 | > 10000 | O=CNc1cc(CCNCCN(C(=O)CCNCCc2ccccc2)C2CCCCC2)ccc1O [Example 21, N-Cyclohexyl-N-(2-(3-formamido-4-hydroxyphenethylamino)ethyl)-3-(phenethylamino)propanamide]
11 | 501 | 2510 | O=C(CCNCCc1ccccc1)N(CCNCCc1ccc(O)c(O)c1)C1CCCCC1 [Example 22, N-Cyclohexyl-N-(2-(3,4-dihydroxyphenethylamino)ethyl)-3-(phenethylamino)propanamide bis(trifluoroacetate)]
12 | 316 | 631 | O=C1COc2c(CCNCCN(C(=O)CCNCCc3ccccc3)C3CCCCC3)ccc(O)c2N1 [Example 23, N-Cyclohexyl-N-(2-(2-(5-hydroxy-3-oxo-3,4-dihydro-2H-benzo[b][1,4]oxazin-8-yl)ethylamino)ethyl)-3-(phenethylamino)propanamide bis(trifluoroacetate)]
13 | 158 | 631 | O=C1COc2c(CCNCCN(C(=O)CCNCCc3ccccc3)C3CCCCCC3)ccc(O)c2N1 [Example 24, N-Cycloheptyl-N-(2-(2-(5-hydroxy-3-oxo-3,4-dihydro-2H-benzo[b][1,4]oxazin-8-yl)ethylamino)ethyl)-3-(phenethylamino)propanamide bis(trifluoroacetate)]
14 | 100 | 2510 | CCCC[C@@H](C)N(CCNCCc1ccc(O)c2c1OCC(=O)N2)C(=O)CCNCCc1ccccc1 [Example 25, (R)—N-(Hexan-2-yl)-N-(2-(2-(5-hydroxy-3-oxo-3,4-dihydro-2H-benzo[b][1,4]oxazin-8-yl)ethylamino)ethyl)-3-(phenethylamino)propanamide bis(trifluoroacetate)]
15 | 31.6 | 2000 | O=C1COc2c(CCNCCN(C(=O)CCNCCc3ccc(Cl)c(Cl)c3)C3CCCCCC3)ccc(O)c2N1 [Example 26, N-Cycloheptyl-3-(3,4-dichlorophenethylamino)-N-(2-(2-(5-hydroxy-3-oxo-3,4-dihydro-2H-benzo[b][1,4]oxazin-8-yl)ethylamino)ethyl)propanamide bis(trifluoroacetate)]
16 | 251 | 3160 | O=C1COc2c(CCNCCN(C(=O)CCNCCc3cccc(Cl)c3)C3CCCCC3)ccc(O)c2N1 [Example 27, 3-(3-Chlorophenethylamino)-N-cyclohexyl-N-(2-(2-(5-hydroxy-3-oxo-3,4-dihydro-2H-benzo[b][1,4]oxazin-8-yl)ethylamino)ethyl)propanamide bis(trifluoroacetate)]
17 | 100 | 3160 | O=C1COc2c(CCNCCN(C(=O)CCNCCc3cccc(Cl)c3Cl)C3CCCCC3)ccc(O)c2N1 [Example 29, N-Cyclohexyl-3-(2,3-dichlorophenethylamino)-N-(2-(2-(5-hydroxy-3-oxo-3,4-dihydro-2H-benzo[b][1,4]oxazin-8-yl)ethylamino)ethyl)propanamide bis(trifluoroacetate)]
18 | 100 | 3160 | O=C1COc2c(CCNCCN(C(=O)CCNCCc3ccc(Cl)cc3Cl)C3CCCCC3)ccc(O)c2N1 [Example 31, N-Cyclohexyl-3-(2,4-dichlorophenethylamino)-N-(2-(2-(5-hydroxy-3-oxo-3,4-dihydro-2H-benzo[b][1,4]oxazin-8-yl)ethylamino)ethyl)propanamide bis(trifluoroacetate)]
19 | 200 | 2000 | O=C1COc2c(CCNCCN(C(=O)CCNCCc3ccc(Cl)cc3)C3CCCCC3)ccc(O)c2N1 [Example 32, 3-(4-Chlorophenethylamino)-N-cyclohexyl-N-(2-(2-(5-hydroxy-3-oxo-3,4-dihydro-2H-benzo[b][1,4]oxazin-8-yl)ethylamino)ethyl)propanamide bis(trifluoroacetate)]

Row | Compound | IC50 [1] [nM] | IC50 [2] [nM]
20 | O=C1COc2c(CCNCCN(C(=O)CCNCCc3ccc(Cl)c(Cl)c3)C3CCCCC3)ccc(O)c2N1 [Example 30, N-Cyclohexyl-3-(3,4-dichlorophenethylamino)-N-(2-(2-(5-hydroxy-3-oxo-3,4-dihydro-2H-benzo[b][1,4]oxazin-8-yl)ethylamino)ethyl)propanamide bis(trifluoroacetate)] | 50.1 | 2510
